Data as given in patent US20170152490A9, “USE OF ACTIVIN RECEPTOR-LIKE KINASE 1 (ALK-1) ANTAGONISTS IN THE TREATMENT OF CANCER” (Acceleron Pharma, Inc., priority 2014, published 2017).
Entries after “also recorded” stand apart in the source; their conditions may differ.

Tests used:
[1] = cited from earlier work; for typical maximum tolerated dose: body surface
[2] = system: RPMI2650 xenograft (Nasal Septum Carcinoma cells, ATCC# CCL-30); experiment: RPMI2650 head and neck carcinoma xenograft, tumor growth; assay type: in vivo, Mus musculus (Hsd: Athymic Nude-Foxn1nu); details: for TGI (tumor growth inhibition): day 30, after 3 weeks of dosing; for TGI (tumor growth inhibition) / GMDV (geo mean of final tumor volume/geo mean of initial tumor volume): ACE-041 10 mg/kg i.p. tiw, cisplatin 5 mg/kg i.v. qw; for GMDV (geo mean of final tumor volume/geo mean of initial tumor volume): day 30
Method: Tumor implantation. RPMI2650 (ATCC #CCL-30) were grown in Eagle's Minimum Essential Medium (ATCC Cat. No 30-2003), supplemented with fetal bovine serum (Gibco, Cat. No 26140) to a final concentration of 10%. Cell were harvested by mild trypsin digestion, washed in SFM and resuspended at a concentration of 50×10E6/ml in SFM. 0.1 ml (5×10E6 cells) of the cell suspension was injected subcutaneously in the right flank of a nude mouse.
Tumor measurement. Tumor size was measured manually using digital calipers. Tumor volume was calculated using the formula for a modified ellipse ((Length*Width2)/2).
Data Analysis. […] TGI was calculated according to the formula:
TGI=(GMDV(C)−GMDV(T))*100/(GMDV(C)−1), where GMDV=Geomean(final volumes)/Geomean(intitial volumes)

[3] = Animal body weight / tolerability in the RPMI2650 xenograft study; details: for Average changes in body weight: ACE-041 10 mg/kg i.p. tiw
Method: Nasal Septum Carcinoma cells (RPMI2650, ATCC# CCL-30) were injected subcutaneously in the right flank (5×10E6 in 0.1 ml of SFM) of 8-week old female mice. Nine days following implantation animals were randomized into 4 groups based on tumor volume. Animal dosing and tumor measurement was done three times a week.
Data Analysis. Graphing and statistical analysis of the tumor volume and body weight data was done using GraphPad Prism 5 software (GraphPad Software Inc., La Jolla, Calif.). Unpaired two-tailed t-test (with or w/o Welch correction) was used to determine statistical significance.

[4] = system: advanced, refractory solid tumors including SCCHN; experiment: Phase 1 study of dalantercept in patients with advanced, refractory solid tumors; assay type: in vivo, human; details: patients incl. SCCHN
[5] = system: recurrent or metastatic squamous cell carcinoma of the head and neck (SCCHN); experiment: Phase 2 study of Dalantercept in recurrent or metastatic SCCHN; assay type: in vivo, human
Method: Methods: 46 patients were enrolled and received Dalantercept SC Q3W at 80 mg (n=2), 0.6 mg/kg (n=13), and 1.2 mg/kg (n=31) until disease progression or unacceptable toxicity. Archived and optional biopsies and serum were collected for PD (pharmacodynamic) studies . The primary endpoint was response rate (RR) per RECIST 1.1 and secondary endpoints included progression free survival and overall survival. Key eligibility: recurrent or metastatic SCCHN of mucosal origin, >1 one prior platinum regimen, ECOG performance status ≦1, and no prior anti-angiogenic therapy.

[6] = Day 9 (randomization, start of dosing), s.c. RPMI2650 xenograft, nude mice
[7] = Day 30, ACE-041 10 mg/kg i.p. tiw x3, cisplatin 5 mg/kg i.v. qw x3
[8] = day 30, cisplatin 5 mg/kg i.v. qw

Row | Compound | typical maximum tolerated dose [1] | Tumor volume (geo mean) [2, 6] | Tumor volume (geo mean) [2, 7] | TGI (tumor growth inhibition) [2] | GMDV (geo mean of final tumor volume/geo mean of initial tumor volume) [2] | Average changes in body weight [3, 8] | cumulative body weight loss on average [3, 8] | body weight loss of some animals (as much as) ([3]; individual animals, triggered termination of the study) | maximum tolerated dose ([1]; typical, most patients) | clinical activity (in words) ([4]; listed as Dalantercept) | clinical activity (in words) ([4]; listed as dalantercept) | toxicity as monitored by changes in animal body weight (in words) ([3]; dosing period to day 30) | proportion of patients with stable disease (SD) >3 cycles ([5]; 0.6 mg/kg SC Q3W (n=3)) | proportion of patients with stable disease (SD) >3 cycles ([5]; 1.2 mg/kg SC Q3W (n=10)) | patients achieving a partial response (PR), RECIST 1.1 ([5]; 1 patient at 1.2 mg/kg SC Q3W, 41 evaluable patients) | frequency of grade >3 related AEs ([5]; 46 patients enrolled, SC Q3W) | most common drug-related adverse events (in words) ([5]; grade 1-2)
1 | N.N.O=C([O-])C1(C(=O)[O-])CCC1.[Pt+2] [Carboplatin] | 600-800 mg/m^2 | – | – | – | – | – | – | – | – | – | – | – | – | – | – | – | –
2 | N.N.[Cl][Pt][Cl] [Cisplatin, cisplatin] | 60-100 mg/m^2 | 185.8 mm3 | 1001 mm3 | 35% | 5.4 | −12.9% | ~13% | ≤ 20% | about 5 mg/kg/day | – | – | – | – | – | – | – | –
3 | N.N.N.N.N.N.NCCCCCCN.NCCCCCCN.[Cl-].[Cl-].[Pt+2].[Pt+2].[Pt+2] [Triplatin] | 0.9-1.1 mg/m^2 | – | – | – | – | – | – | – | – | – | – | – | – | – | – | – | –
4 | ACE-041: Soluble ALK1-IgG1 fusion protein (ALK1 extracellular domain-Fc), see SEQ ID NO: 3; ligand trap to BMP 9 and 10 | – | 181.4 mm3 | 1024 mm3 | 32% | 5.6 | 9.1% | – | – | – | demonstrated activity in a subset of patients with SCCHN | signs of clinical activity; also recorded: stable disease | did not show any sign of acute toxicity | 23% | 37% | 2.4% | 13% | anemia, fatigue, peripheral edema, headache, hyponatremia, and pleural effusion
